Key:
[1] = target: T1, HDAC6 (Homo sapiens, UniProt Q9UBN7); test: HDAC6 enzyme inhibition assay (single point and 10-dose IC50, Reaction Biology); type: biochemical
T1 construct: purchased Reaction Biology corporation (contract assay)
T1 sequence (Q9UBN7 1-1215): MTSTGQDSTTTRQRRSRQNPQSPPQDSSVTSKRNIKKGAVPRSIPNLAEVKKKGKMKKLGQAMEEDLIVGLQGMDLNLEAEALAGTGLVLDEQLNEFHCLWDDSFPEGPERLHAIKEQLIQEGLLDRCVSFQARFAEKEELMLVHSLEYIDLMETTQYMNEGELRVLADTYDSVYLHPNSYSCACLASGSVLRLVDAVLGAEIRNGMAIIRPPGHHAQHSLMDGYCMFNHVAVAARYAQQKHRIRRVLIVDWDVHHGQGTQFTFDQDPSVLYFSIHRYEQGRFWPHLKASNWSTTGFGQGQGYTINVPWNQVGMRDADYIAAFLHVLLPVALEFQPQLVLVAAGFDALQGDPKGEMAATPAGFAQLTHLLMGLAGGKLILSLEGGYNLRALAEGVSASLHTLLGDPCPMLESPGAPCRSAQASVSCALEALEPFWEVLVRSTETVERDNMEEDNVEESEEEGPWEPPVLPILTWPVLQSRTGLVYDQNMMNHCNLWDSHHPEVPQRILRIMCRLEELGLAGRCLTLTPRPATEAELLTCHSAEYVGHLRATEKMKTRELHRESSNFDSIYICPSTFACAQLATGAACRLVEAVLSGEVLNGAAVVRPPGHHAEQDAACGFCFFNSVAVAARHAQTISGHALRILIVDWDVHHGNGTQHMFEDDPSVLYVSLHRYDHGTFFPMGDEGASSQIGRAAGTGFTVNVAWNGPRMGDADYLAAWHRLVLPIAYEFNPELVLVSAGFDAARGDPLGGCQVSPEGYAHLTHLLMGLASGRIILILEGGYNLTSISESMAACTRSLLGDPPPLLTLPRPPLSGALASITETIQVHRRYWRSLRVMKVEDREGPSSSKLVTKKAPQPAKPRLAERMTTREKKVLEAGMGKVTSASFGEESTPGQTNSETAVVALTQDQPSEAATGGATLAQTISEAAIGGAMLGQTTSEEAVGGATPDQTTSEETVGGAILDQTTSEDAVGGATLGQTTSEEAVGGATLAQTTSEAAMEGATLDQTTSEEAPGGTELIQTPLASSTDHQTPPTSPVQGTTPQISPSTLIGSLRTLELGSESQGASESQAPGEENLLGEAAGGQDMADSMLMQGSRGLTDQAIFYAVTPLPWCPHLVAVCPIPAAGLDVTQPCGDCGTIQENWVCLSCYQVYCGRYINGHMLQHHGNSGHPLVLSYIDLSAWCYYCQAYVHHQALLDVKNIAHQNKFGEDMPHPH
Procedure: (§1) Against HDAC6, inhibition was determined using 0.01 µM of the inhibitor.
(§2) All IC50 measurements we performed by Reaction Biology corporation. Compounds were tested in
(§3) dilution starting at 1 uM. […]
(§4) (RHK(Ac)K(Ac)AMC). IC50 values were calculated using the GraphPad Prism 4 program based on a
(§5) sigmoidal dose-response equation. […]

[2] = target: T2, HDAC8 (Homo sapiens, UniProt Q9BY41); test: HDAC8 enzyme inhibition assay (single point and 10-dose IC50, Reaction Biology); type: biochemical
T2 construct: purchased Reaction Biology corporation (contract assay)
T2 sequence (Q9BY41 1-377): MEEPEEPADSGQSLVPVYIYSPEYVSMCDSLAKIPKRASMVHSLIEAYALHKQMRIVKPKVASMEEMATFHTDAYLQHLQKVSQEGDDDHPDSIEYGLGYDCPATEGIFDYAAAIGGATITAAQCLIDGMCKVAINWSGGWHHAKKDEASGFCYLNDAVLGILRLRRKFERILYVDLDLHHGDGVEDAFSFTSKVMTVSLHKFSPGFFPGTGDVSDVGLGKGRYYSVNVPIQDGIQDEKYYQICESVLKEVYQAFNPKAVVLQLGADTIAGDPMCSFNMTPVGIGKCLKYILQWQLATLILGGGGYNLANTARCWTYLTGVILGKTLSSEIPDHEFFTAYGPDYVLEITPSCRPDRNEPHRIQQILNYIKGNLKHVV
Procedure: as §1, §2, §3, §4, §5

[3] = average of two independent measurements

IC50 [1, 3]: 1 ± 0.005 nM | HDAC6 average enzyme isoform activity (percentage of full enzyme activity) ([1]; single point, inhibitor 0.01 μM, average of two measurements, ±2%): 20.4% | IC50 [2, 3]: 2950 ± 460 nM | Selectivity factor (SF) HDAC8 against HDAC6 ([2]; selectivity for HDAC6 over HDAC8): 2950 | HDAC8 average enzyme isoform activity (percentage of full enzyme activity) ([2]; single point, inhibitor 1.0 μM, average of two measurements, ±2%): 69.3%
Structure (SMILES): O=C(CCCCCN1C(=O)c2cccc3cc(NC(=O)c4ccccc4)cc(c23)C1=O)NO [KNH019]
